Test results taken from patent US8178506B2, “Oligomeric compounds and compositions for use in modulation of small non-coding RNAs” (Regulus Therapeutics Inc., priority 2003, dated 2012).
In the oligonucleotide strings, read from the 5' end, every base follows the letter of its sugar. An asterisk marks phosphorothioate; unmarked linkages are phosphodiester. Other units and linkages are bracketed, terminal groups are in braces. A string of capitals states the bases alone. e = 2'-O-(2-methoxyethyl) (MOE); [5mC] = 5-methylcytosine; d = 2'-deoxy (DNA)

Tests used:
[1] = tested on: PEPCK-c; test: PEPCK-c mRNA expression in HepG2 cells; assay type: cell-based, human; conditions: for PEPCKc mRNA: four hours, UTC = 100; for PEPCKc mRNA expression: Experiment 2, insulin treated: HepG2 cells transfected with oligomeric compound, 1 nM insulin for four hours, UTC + 1 nM insulin = 100
[2] = tested on: BJ, B16-F10, T47D, T47Dp53 and HeLa cells; test: Cell cycle assay (propidium iodide flow cytometry), cell line panel; assay type: cell-based; conditions: for G1 (percentage of cells in phase of the cell cycle) / G2/M (percentage of cells in phase of the cell cycle) / S (percentage of cells in phase of the cell cycle) / SubG1 (percentage of cells in phase of the cell cycle) / aneuploid (percentage of cells): 150 nM oligomeric compound, 4.5 μg/ml LIPOFECTIN, after 72 hours, propidium iodide flow cytometry
[3] = Experiment 1, basal (no insulin), HepG2, 100 nM oligomeric compound
[4] = Experiment 2, 1 nM insulin treated, HepG2, 100 nM oligomeric compound
[5] = HepG2 cells, Experiment 1, basal (no insulin)

Row | Substance | G1 (percentage of cells in phase of the cell cycle) [2] | G2/M (percentage of cells in phase of the cell cycle) [2] | S (percentage of cells in phase of the cell cycle) [2] | SubG1 (percentage of cells in phase of the cell cycle) [2] | aneuploid (percentage of cells) [2] | PEPCKc mRNA [1, 5] | further results
1 | 327925 (antisense eT*eA*eG*e[5mC]*eT*eG*eG*eT*eT*eG*eA*eA*eG*eG*eG*eG*eA*e[5mC]*e[5mC]*eA*eA) [compound 327925] |  |  |  |  |  |  | PEPCK-c (% UTC) [1, 3]: 145 % UTC; PEPCK-c (% UTC) [1, 4]: 182 % UTC
2 | 327888 (antisense eA*eA*eT*eG*e[5mC]*e[5mC]*e[5mC]*e[5mC]*eT*eA*eA*eA*eA*eA*eT*e[5mC]*e[5mC]*eT*eT*eA*eT) [compound 327888] | 53.7% | 16.7% | 29.5% | 13.3% | 12.9% |  | 
3 | 338664 (antisense e[5mC]*eA*eG*eA*e[5mC]*eT*e[5mC]*e[5mC]*e[5mC]*eA*eA*e[5mC]*eT*eG*eA*e[5mC]*e[5mC]*eA*eG*eA) [compound 338664] |  |  |  |  |  |  | PEPCK-c (% UTC) [1, 3]: 75 % UTC; PEPCK-c (% UTC) [1, 4]: 76 % UTC
4 | 341805 (antisense ACCCTTATCAGTTCTCCGTCCA; all 2'-MOE, all phosphorothioate, methylation of C not given here) [compound 341805] |  |  |  |  |  | 40 | 
5 | 341803 (antisense CCACACACTTCCTTACATTCCA; all 2'-MOE, all phosphorothioate, methylation of C not given here) [compound 341803] |  |  |  |  |  | 110 | 
6 | 327906 (antisense eT*e[5mC]*eA*eT*eA*eG*e[5mC]*e[5mC]*e[5mC]*eT*eG*eT*eA*e[5mC]*eA*eA*eT*eG*e[5mC]*eT*eG*e[5mC]*eT) [compound 327906] | 46.1% | 20.9% | 33% | 15.2% | 15.8% |  | 
7 | 327913 (antisense eA*eA*e[5mC]*e[5mC]*eG*eA*eT*eT*eT*e[5mC]*eA*eA*eA*eT*eG*eG*eT*eG*e[5mC]*eT*eA*eG) [compound 327913] |  |  |  |  |  |  | PEPCK-c (% UTC) [1, 3]: 229 % UTC; PEPCK-c (% UTC) [1, 4]: 268 % UTC
8 | 328125 (antisense eT*eA*eT*eG*eA*eA*eA*eT*eG*e[5mC]*e[5mC]*eA*eG*eA*eG*e[5mC]*eT*eG*e[5mC]*e[5mC]*eA) [compound 328125] |  |  |  |  |  |  | PEPCKc mRNA expression [1]: 77
9 | 328685 (e[5mC]*eG*eG*e[5mC]*e[5mC]*dG*dG*dA*dG*d[5mC]*d[5mC]*dA*dT*dA*dG*eA*e[5mC]*eT*e[5mC]*eG; antisense) [compound 328685] |  |  |  |  |  |  | PEPCK-c (% UTC) ([1]; Experiment 3, basal (no insulin), HepG2 cells, 48 hours post-transfection): 219 % UTC; PEPCK-c (% UTC) ([1]; Experiment 4, insulin-sensitization: HepG2 cells treated with 1 nM insulin for four hours, 48 h post-transfection, mRNA by real-time PCR): 184 % UTC
10 | 327880 (antisense eA*e[5mC]*eA*eA*eA*eT*eT*e[5mC]*eG*eG*eT*eT*e[5mC]*eT*eA*e[5mC]*eA*eG*eG*eG*eT*eA) [compound 327880] |  |  |  |  |  |  | PEPCK-c (% UTC) [1, 3]: 110 % UTC; PEPCK-c (% UTC) [1, 4]: 125 % UTC
11 | 327899 (antisense e[5mC]*eA*eG*eT*eG*eA*eA*eT*eT*e[5mC]*eT*eA*e[5mC]*e[5mC]*eA*eG*eT*eG*e[5mC]*e[5mC]*eA*eT*eA) [compound 327899] |  |  |  |  |  | 42 | 
12 | 327918 (antisense e[5mC]*eT*eA*eG*eT*eA*e[5mC]*eA*eT*e[5mC]*eA*eT*e[5mC]*eT*eA*eT*eA*e[5mC]*eT*eG*eT*eA) [compound 327918] |  |  |  |  |  | 81 | PEPCKc mRNA expression [1]: 107
13 | 328114 (antisense eA*eA*eT*e[5mC]*eT*e[5mC]*eA*eT*eT*eT*eT*e[5mC]*eA*eT*eA*e[5mC]*eT*eT*eG*e[5mC]*eA) [compound 328114] |  |  |  |  |  |  | PEPCKc mRNA expression [1]: 41
14 | 328362 (eT*eG*eT*eG*eT*dT*dT*dT*d[5mC]*dT*dG*dA*d[5mC]*dT*d[5mC]*eA*eG*eT*e[5mC]*eA) [compound 328362] | 51.2% | 15.1% | 33.6% | 9.1% | 12.9% |  | 
15 | 327890 (antisense eA*eG*e[5mC]*eA*e[5mC]*eA*eA*eA*e[5mC]*eT*eA*e[5mC]*eT*eA*e[5mC]*e[5mC]*eT*e[5mC]*eA) [compound 327890] |  |  |  |  |  |  | PEPCK-c (% UTC) [1, 3]: 85 % UTC; PEPCK-c (% UTC) [1, 4]: 113 % UTC
16 | 327902 (antisense eG*eG*e[5mC]*eT*eG*eT*e[5mC]*eA*eA*eT*eT*e[5mC]*eA*eT*eA*eG*eG*eT*e[5mC]*eA*eG) [compound 327902] | 50.7% | 15.3% | 33.9% | 10.6% | 13.4% |  | 
17 | 327887 (antisense eG*e[5mC]*eG*eA*e[5mC]*e[5mC]*eA*eT*eG*eG*e[5mC]*eT*eG*eT*eA*eG*eA*e[5mC]*eT*eG*eT*eT*eA) [compound 327887] |  |  |  |  |  | 83 | 
18 | 327893 (antisense eA*eA*e[5mC]*e[5mC]*eA*e[5mC]*eA*e[5mC]*eA*eA*e[5mC]*e[5mC]*eT*eA*e[5mC]*eT*eA*e[5mC]*e[5mC]*eT*e[5mC]*eA) [compound 327893] |  |  |  |  |  | 81 | 
19 | 327928 (antisense eA*eA*e[5mC]*e[5mC]*eG*eA*eT*eT*eT*e[5mC]*eA*eG*eA*eT*eG*eG*eT*eG*e[5mC]*eT*eA*eG) [compound 327928] | 56% | 16% | 27.9% | 6.6% | 15.9% |  | 
20 | 327920 (antisense eG*eA*eG*eA*e[5mC]*e[5mC]*e[5mC]*eA*eG*eT*eA*eG*e[5mC]*e[5mC]*eA*eG*eA*eT*eG*eT*eA*eG*e[5mC]*eT) [compound 327920] |  |  |  |  |  | 52 | PEPCKc mRNA expression [1]: 59
21 | 327897 (antisense eA*e[5mC]*eA*eG*eG*e[5mC]*e[5mC]*eG*eG*eG*eA*e[5mC]*eA*eA*eG*eT*eG*e[5mC]*eA*eA*eT*eA) [compound 327897] |  |  |  |  |  | 72 | PEPCKc mRNA expression [1]: 78
22 | 327886 (antisense e[5mC]*eG*e[5mC]*eG*eT*eA*e[5mC]*e[5mC]*eA*eA*eA*eA*eG*eT*eA*eA*eT*eA*eA*eT*eG) [compound 327886] |  |  |  |  |  | 61 | 
23 | 327951 (antisense e[5mC]*eA*e[5mC]*eA*eA*eA*e[5mC]*e[5mC]*eA*eT*eT*eA*eT*eG*eT*eG*e[5mC]*eT*eG*e[5mC]*eT*eA) [compound 327951] | 60.9% | 14.3% | 24.8% | 4.3% | 16.7% |  | 
24 | 327916 (antisense eT*eG*eG*e[5mC]*eA*eT*eT*e[5mC]*eA*e[5mC]*e[5mC]*eG*e[5mC]*eG*eT*eG*e[5mC]*e[5mC]*eT*eT*eA*eA) [compound 327916] |  |  |  |  |  | 88 | PEPCKc mRNA expression [1]: 88
25 | 327910 (antisense eT*eG*eA*eT*eA*eG*e[5mC]*e[5mC]*e[5mC]*eT*eG*eT*eA*e[5mC]*eA*eA*eT*eG*e[5mC]*eT*eG*e[5mC]*eT) [compound 327910] | 49.5% | 17.5% | 33% | 9.3% | 13.1% |  | 
26 | 327904 (antisense eA*e[5mC]*eT*e[5mC]*eA*e[5mC]*e[5mC]*eG*eA*e[5mC]*eA*eG*e[5mC]*eG*eT*eT*eG*eA*eA*eT*eG*eT*eT) [compound 327904] | 54.4% | 16.2% | 29.5% | 8.6% | 15.6% |  | 
27 | 328382 (e[5mC]*eA*eG*eA*e[5mC]*dT*d[5mC]*d[5mC]*d[5mC]*dA*dA*d[5mC]*dT*dG*dA*e[5mC]*e[5mC]*eA*eG*eA) [compound 328382] | 59.8% | 14.4% | 25.7% | 2.9% | 14.8% |  | 
28 | TGAGCTACAGTGCTTCATCTCA [ISIS 327901] (chemistry not given here) [uniform 2′-MOE PS; targets mir-143] |  |  |  |  |  |  | percentage of cells in the G2/M phase ([2]; 150 nM, 72 hours (Table 29)): increased percentage of cells in the G2/M phase
29 | 327907 (antisense eA*eG*e[5mC]*e[5mC]*eT*eA*eT*e[5mC]*e[5mC]*eT*eG*eG*eA*eT*eT*eA*e[5mC]*eT*eT*eG*eA*eA) [compound 327907] | 49.5% | 17.6% | 32.8% | 17.8% | 17.8% |  | 
